Drawing on US20130310379A1, “MODULATORS OF METHYL MODIFYING ENZYMES, COMPOSITIONS AND USES THEREOF” (CONSTELLATION PHARMACEUTICALS, priority 2010, published 2013), this text covers IC50 for 58 compounds.

The structures appear in SMILES notation. pIC50: −log10 of the molar value.

EZH2, sequence (Q15910 whole entry): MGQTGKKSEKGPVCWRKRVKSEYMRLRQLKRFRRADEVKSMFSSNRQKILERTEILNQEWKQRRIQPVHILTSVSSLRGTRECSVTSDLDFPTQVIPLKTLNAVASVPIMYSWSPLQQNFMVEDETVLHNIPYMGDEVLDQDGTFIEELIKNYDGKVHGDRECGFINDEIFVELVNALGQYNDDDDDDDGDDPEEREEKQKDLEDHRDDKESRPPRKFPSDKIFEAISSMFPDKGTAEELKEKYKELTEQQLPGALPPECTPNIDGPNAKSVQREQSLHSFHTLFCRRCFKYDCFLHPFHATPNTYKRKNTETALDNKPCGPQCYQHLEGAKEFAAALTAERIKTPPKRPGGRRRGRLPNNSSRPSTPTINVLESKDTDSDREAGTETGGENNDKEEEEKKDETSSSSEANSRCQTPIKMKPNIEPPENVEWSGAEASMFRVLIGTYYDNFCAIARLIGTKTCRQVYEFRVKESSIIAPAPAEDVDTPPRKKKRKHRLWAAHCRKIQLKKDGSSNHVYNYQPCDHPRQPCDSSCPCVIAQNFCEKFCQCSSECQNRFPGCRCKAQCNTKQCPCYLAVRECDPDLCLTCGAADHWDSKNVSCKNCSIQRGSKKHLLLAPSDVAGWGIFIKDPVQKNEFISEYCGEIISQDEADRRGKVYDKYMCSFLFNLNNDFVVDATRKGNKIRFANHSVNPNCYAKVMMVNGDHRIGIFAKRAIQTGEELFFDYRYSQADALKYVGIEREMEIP
EZH2, sequence (O75530 whole entry partner): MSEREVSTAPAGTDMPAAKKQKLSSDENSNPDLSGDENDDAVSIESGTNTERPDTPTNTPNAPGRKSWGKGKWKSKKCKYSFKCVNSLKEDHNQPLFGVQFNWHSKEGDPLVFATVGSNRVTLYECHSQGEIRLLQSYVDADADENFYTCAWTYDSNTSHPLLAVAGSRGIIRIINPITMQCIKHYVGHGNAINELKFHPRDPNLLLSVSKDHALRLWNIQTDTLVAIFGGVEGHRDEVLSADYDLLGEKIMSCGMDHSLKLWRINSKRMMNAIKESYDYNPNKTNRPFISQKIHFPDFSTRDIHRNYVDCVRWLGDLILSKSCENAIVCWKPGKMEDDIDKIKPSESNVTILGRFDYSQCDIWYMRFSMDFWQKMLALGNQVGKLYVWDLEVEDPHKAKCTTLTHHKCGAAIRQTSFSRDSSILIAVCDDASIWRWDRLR
EZH2, sequence (Q15022 whole entry partner): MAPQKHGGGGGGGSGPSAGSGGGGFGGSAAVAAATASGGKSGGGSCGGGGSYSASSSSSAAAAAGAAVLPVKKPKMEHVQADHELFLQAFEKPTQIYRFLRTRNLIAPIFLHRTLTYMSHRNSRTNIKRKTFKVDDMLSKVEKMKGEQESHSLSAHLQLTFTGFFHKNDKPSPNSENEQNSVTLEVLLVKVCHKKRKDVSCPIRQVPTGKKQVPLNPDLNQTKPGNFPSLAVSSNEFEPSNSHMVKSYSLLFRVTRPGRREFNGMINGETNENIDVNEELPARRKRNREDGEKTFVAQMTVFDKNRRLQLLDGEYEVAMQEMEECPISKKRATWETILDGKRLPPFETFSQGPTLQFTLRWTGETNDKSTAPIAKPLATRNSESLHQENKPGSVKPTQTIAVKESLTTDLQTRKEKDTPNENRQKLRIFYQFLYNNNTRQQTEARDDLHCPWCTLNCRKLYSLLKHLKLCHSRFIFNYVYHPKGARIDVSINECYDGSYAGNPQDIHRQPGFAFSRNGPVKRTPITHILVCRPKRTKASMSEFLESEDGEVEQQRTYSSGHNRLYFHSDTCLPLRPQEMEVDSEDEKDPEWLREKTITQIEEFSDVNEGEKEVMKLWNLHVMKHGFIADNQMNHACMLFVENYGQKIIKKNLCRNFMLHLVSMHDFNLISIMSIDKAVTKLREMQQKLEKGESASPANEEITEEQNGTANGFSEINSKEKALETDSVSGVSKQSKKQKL

This test addresses EZH2 (Homo sapiens, UniProt Q15910). As to the kind of experiment: EZH2 assay: rPRC2 with biotinylated oligonucleosome substrates and 3H SAM, FlashPlate scintillation counting, IC50. The test is classed as biochemical. To be noted: rPRC2, biotinylated oligonucleosome substrates, 3H SAM; read-out: EZH2 IC50. Here is the method: Assays were carried out by mixing rPRC2 together with biotinylated oligonucleosome substrates in the presence of the radio-labeled enzyme co-factor, S-adenosyl-L-methionine (^3H SAM) (Perkin Elmer) and monitoring the enzymatically mediated transfer of tritiated methyl groups from ^3H SAM to histone lysine residues. The amount of resulting tritated methylhistone product was measured by first capturing the biotinylated oligonuclesomes in streptavidin (SAV) coated FlashPlates (Perkin Elmer), followed by a wash step to remove un-reacted ^3H SAM, and then counting on a TopCount NXT 384 well plate scintillation counter (Perkin Elmer). The final assay conditions for EZH2 were as follows: 50 mM Tris Buffer pH 8.5, 1 mM DTT, 69 uM Brij-35 detergent, 5.0 mM MgCl2, 0.1 mg/mL BSA, 0.2 uM ^3H SAM, 0.2 uM biotinylated oligonucleosomes, 3.6 uM H3K27me3 peptide and 2 nM EZH2.
Compound IC50 measurements were obtained as follows: Compounds were first dissolved in 100% DMSO as 10 mM stock solutions. […] A 12.5 uL volume of the HMT enzyme, H3K27me3 peptide and oligonucleosome substrate in assay buffer was added to each well of the assay plate using a Multidrop Combi (ThermoFisher). Compounds were pre-incubated with the enzyme for 20 min, followed by initiation of the methyltransferase reaction by addition of 12.5 uL of 3H SAM in assay buffer (final volume=25 uL). The final concentrations of compounds ranged from a top default concentration of 80 uM down to 0.16 uM in ten 2-fold dilution steps. Reactions were carried out for 60 minutes and quenched with 20 uL per well of 1.96 mM SAH, 50 mM Tris PH 8.5, 200 mM EDTA. Stopped reactions were transferred to SAV coated Flashplates (Perkin Elmer), incubated for 120 min, washed with a plate washer, and then read on the TopCount NXT (1.0 min/well) to measure the amount of methylhistone product formed during the reaction. The amount of methylhistone product was compared with the amount of product formed in the 0% and 100% inhibition control wells allowing the calculation of % Inhibition in the presence of the individual compounds at various concentrations. IC50's were computed using a 4 parameter fit non-linear curve fitting software package (XLFIT, part of the database package, ActivityBase (IDBS)) where the four parameters were IC50, Hill slope, pre-transitional baseline (0% INH), and post-transitional baseline (100% INH); with the latter two parameters being fixed to zero and 100%, respectively, by default.
As a reminder, the pIC50 is the negative decadic logarithm of the IC50, by convention in mol/L. As for `COCc1ccccc1Oc1ccc(C(=O)NC2CC(C)(C)NC(C)(C)C2)cc1` [Compound I-248], the pIC50 is 4.10 to 4.70. In the case of `CC1(C)CC(NC(=O)c2ccc(CCOc3ccccc3)cc2)CC(C)(C)N1` [Compound I-292] it was below 4.10; in that of `COc1ccc(-c2cccc(OCc3ccc(C(=O)NC4CC(C)(C)NC(C)(C)C4)cc3)c2)cn1` [Compound I-41], 4.10 to 4.70; in that of `CC1(C)CC(NC(=O)c2ccc(Oc3ccccc3-c3ccccn3)c(Cl)c2)CC(C)(C)N1` [Compound I-225], 4.70 to 5.30.

With `Cc1cc(C(=O)NC2CC(C)(C)NC(C)(C)C2)ccc1Oc1cccc(-c2ccnnc2)c1C#N` [Compound I-508], the negative logarithm of the IC50 (pIC50) is above 5.30. In the case of `CC1(C)CC(NC(=O)c2ccc(Oc3cccc(C4CCOCC4)c3C#N)c(Cl)c2)CC(C)(C)N1` [Compound I-531] it was above 5.30; in that of `CC1(C)CC(NC(=O)c2ccc(Oc3cccc(CCC(=O)N4CCCC4)c3C#N)c(Cl)c2)CC(C)(C)N1` [Compound I-553], above 5.30; in that of `Cc1ccc(-c2cccc(OCc3ccc(C(=O)NC4CC(C)(C)NC(C)(C)C4)cc3)c2)cn1` [Compound I-14], 4.70 to 5.30. As for `CC1(C)CC(NC(=O)c2ccc(Oc3ccccc3)cc2)CC(C)(C)N1` [Compound I-52], the figure is 4.10 to 4.70; as for `CC1(C)CC(NC(=O)c2ccc(Oc3cccc(CC#N)c3-c3cncnc3)c(Cl)c2)CC(C)(C)N1` [Compound I-444], above 5.30. In the case of `CC1(C)CC(NC(=O)c2ccc(OCc3ccc([N+](=O)[O-])cc3)cc2)CC(C)(C)N1` [Compound I-81] it was below 4.10.

For `C#Cc1cccc(OCc2ccc(C(=O)NC3CC(C)(C)NC(C)(C)C3)cc2)c1` [Compound I-184], the negative logarithm of the IC50 (pIC50) is above 5.30. In the case of `CC(C)c1cc(C(=O)NC2CC(C)(C)NC(C)(C)C2)ccc1Oc1ccccc1C#N` [Compound I-237] it was above 5.30. For the compound `CC1(C)CC(NC(=O)c2ccc(SCc3ccccc3)cc2)CC(C)(C)N1` [Compound I-45, 4-(Benzylthio)-N-(2,2,6,6-tetramethylpiperidin-4-yl)benzamide], the negative-log IC50 (pIC50) is 4.10 to 4.70. With `CCCc1cc(C(=O)NC2CC(C)(C)NC(C)(C)C2)ccc1Oc1ccccc1C#N` [Compound I-198], the negative logarithm of the IC50 (pIC50) is above 5.30. As for `CC(c1ccccc1C#N)N1CCN(C(=O)NC2CC(C)(C)NC(C)(C)C2)CC1` (stereo not shown) [Compound I-454], the figure is below 4.10; as for `CN(Cc1ccccc1)C(=O)c1ccc(Oc2ccccc2)cc1` [Compound I-133], below 4.10; as for `CC1(C)CC(NC(=O)N2CCC(c3ccccc3)C2)CC(C)(C)N1` (stereo not shown) [Compound I-470], below 4.10.

Turning to `CNCc1cccc(Oc2ccc(C(=O)NC3CC(C)(C)NC(C)(C)C3)cc2Cl)c1` [Compound I-425], the pIC50 is below 4.10. In the case of `CC1(C)CC(NC(=O)c2ccc(COc3ccccc3)cc2)CC(C)(C)N1` [Compound I-39] it was 4.10 to 4.70; in that of `CC1(C)CC(NC(=O)c2ccc(COc3cccc4ccccc34)cc2)CC(C)(C)N1` [Compound I-4], above 5.30; in that of `Cn1cncc1COc1ccc(C(=O)NC2CC(C)(C)NC(C)(C)C2)cc1Cl` [Compound I-390], below 4.10. In the case of `Cc1cc(C)cc(OCc2cccc(C(=O)NC3CC(C)(C)NC(C)(C)C3)c2)c1` [Compound I-115] it was below 4.10. As to `CC1(C)CC(NC(=O)c2ccc(Oc3ccccc3)cc2Cl)CC(C)(C)N1` [Compound I-175], the negative-log IC50 (pIC50) is below 4.10. Regarding `CC(c1ccccc1C#N)N1CCN(C(=O)NC2CC(C)(C)NC(C)(C)C2)CC1=O` (stereo not shown) [Compound I-484], the pIC50 was below 4.10. In the case of `CC1(C)CC(C#N)(NC(=O)c2ccc(Oc3cccc(-c4ccnnc4)c3C#N)c(Cl)c2)CC(C)(C)N1` [Compound I-456] it was above 5.30. As for `COc1ccc(-c2cccc(Oc3ccc(C(=O)NC4CC(C)(C)NC(C)(C)C4)cc3Cl)c2C#N)cn1` [Compound I-366], the figure is above 5.30. As for `COC(=O)c1cncc(-c2ccccc2Oc2ccc(C(=O)NC3CC(C)(C)NC(C)(C)C3)cc2Cl)c1` [Compound I-322], the pIC50 was above 5.30. With `CC(c1ccccc1)c1ccc(C(=O)NC2CC(C)(C)NC(C)(C)C2)cc1` (stereo not shown) [Compound I-426], the negative-log IC50 (pIC50) was below 4.10. In the case of `Cc1cccc(OCc2ccc(C(=O)NC3CC(C)(C)NC(C)(C)C3)cc2)c1` [Compound I-46, N-(2,2,6,6-tetramethylpiperidin-4-yl)-4-(m-tolyloxymethyl)benzamide] it was 4.10 to 4.70. In the case of `CC1(C)CC(NC(=O)c2ccc(Oc3ccccc3-c3cncnc3)c(Cl)c2)CC(C)(C)N1` [Compound I-279] it was above 5.30. As for `CC1(C)CC(NC(=O)c2ccc(C3(c4ccccc4)CC3)cc2)CC(C)(C)N1` [Compound I-437], the figure is below 4.10. For the compound `CC1(C)CC(NC(=O)c2ccc(-c3ccc4ccncc4c3)c(Cl)c2)CC(C)(C)N1` [Compound I-377], the pIC50 is 4.70 to 5.30. As for `CC1(C)CC(NC(=O)c2ccc(Oc3ccccc3C#N)c(Cl)c2)CC(C(=O)O)N1` (stereo not shown) [Compound I-419], the figure is below 4.10. In the case of `CC1(C)CC(C)(NC(=O)c2ccc(Oc3cccc(-c4ccnnc4)c3C#N)c(Cl)c2)CC(C)(C)N1` [Compound I-507] it was 4.10 to 4.70. As for `CC1(C)CC(NC(=O)c2ccc(Oc3ccccc3F)cc2)CC(C)(C)N1` [Compound I-40], the figure is 4.10 to 4.70; as for `CC1(C)CC(NC(=O)c2ccc(-c3ccccc3)cc2)CC(C)(C)N1` [Compound I-61], 4.10 to 4.70; as for `CC1(C)CC(NC(=O)c2ccc(COc3ccncc3)cc2)CC(C)(C)N1` [Compound I-112], below 4.10.

Take `CC1(C)CC(NC(=O)c2ccc(Oc3cccc(C4=CCOCC4)c3C#N)c(Cl)c2)CC(C)(C)N1` [Compound I-529]: the negative-log IC50 (pIC50) was above 5.30. As for `CNCc1cccc(Oc2ccc(C(=O)NC3CC(C)(C)NC(C)(C)C3)cc2)c1` [Compound I-236], the figure is 4.70 to 5.30; as for `CN1CCC(N(C)C(=O)c2ccc(Oc3ccccc3)cc2)CC1` [Compound I-72], below 4.10; as for `CC1(C)CC(NC(=O)c2ccc(OCC3CCCCN3)c(Cl)c2)CC(C)(C)N1` (stereo not shown) [Compound I-450], below 4.10. For the compound `C#Cc1ccccc1Oc1ccc(C(=O)NC2CC(C)(C)NC(C)(C)C2)cc1` [Compound I-224], the negative logarithm of the IC50 (pIC50) was 4.70 to 5.30. For the compound `CC1(C)CC(NC(=O)c2ccc(Oc3cccc(C4CCCN4)c3C#N)c(Cl)c2)CC(C)(C)N1` (stereo not shown) [Compound I-562], the pIC50 was above 5.30. As for `CC1(C)CC(NC(=O)c2ccc(COCc3ccccc3)cc2)CC(C)(C)N1` [Compound I-62], the figure is 4.10 to 4.70. As for `CCc1cccc(Oc2ccc(C(=O)NC3CC(C)(C)NC(C)(C)C3)cc2Cl)c1C#N` [Compound I-310], the pIC50 is above 5.30. In the case of `CC1(C)CC(NC(=O)c2ccc(Oc3ccccc3C#N)cn2)CC(C)(C)N1` [Compound I-205] it was 4.70 to 5.30; in that of `CC1(C)CC(NC(=O)c2ccc(Oc3ccccc3C3CCCCC3)c(Cl)c2)CC(C)(C)N1` [Compound I-195], 4.70 to 5.30. As to `CC(C)CNC(=O)c1ccc(Oc2ccccc2)cc1` [Compound I-139], the pIC50 is below 4.10. As for `CC1(C)CC(NC(=O)c2ccc(O[C@H]3CCNC3=O)c(Cl)c2)CC(C)(C)N1` [Compound I-457], the pIC50 was below 4.10. As for `CC1(C)CC(NC(=O)c2ccc(Oc3ccccc3-c3ncco3)c(Cl)c2)CC(C)(C)N1` [Compound I-253], the figure is above 5.30; as for `CC1(C)CC(NC(=O)c2ccc(Oc3ncccc3C#N)c(Br)c2)CC(C)(C)N1` [Compound I-220], above 5.30; as for `CC1(C)CC(NC(=O)c2ccc(COc3ccccn3)cc2)CC(C)(C)N1` [Compound I-80], below 4.10. As for `CC1(C)CC(NC(=O)c2ccc(Oc3ccccc3C#N)c(Cl)c2)CC(=O)N1` (stereo not shown) [Compound I-491], the figure is below 4.10; as for `CN1CCN(C(=O)CCc2cccc(Oc3ccc(C(=O)NC4CC(C)(C)NC(C)(C)C4)cc3Cl)c2C#N)CC1` [Compound I-555], above 5.30; as for `CC1(C)CC(NC(=O)c2ccc(COc3cccc(N4CCCNCC4)c3)cc2)CC(C)(C)N1` [Compound I-166], below 4.10. In the case of `CC1(C)CC(NC(=O)c2ccc(Sc3ccccc3)c(Cl)c2)CC(C)(C)N1` [Compound I-300] it was 4.10 to 4.70; in that of `CC1(C)CC(NC(=O)c2ccc(Oc3cccc(-c4ccnnc4)c3C#N)c(Cl)c2)CC(=O)N1` (stereo not shown) [Compound I-519], 4.10 to 4.70.
